Results taken from US6353002B2, “Therapeutic agents” (Knoll Aktiengesellschaft, priority 1997, dated 2002).
Counter-ions that a name gives are not always drawn.

Target: T1, 5-HT1A receptors (Rattus norvegicus, UniProt P19327)
T1 construct: Hippocampal tissue from the brains of male Charles River CD rats; from tissue; host or cells: rat hippocampus membrane homogenate
T1 sequence (P19327 1-422): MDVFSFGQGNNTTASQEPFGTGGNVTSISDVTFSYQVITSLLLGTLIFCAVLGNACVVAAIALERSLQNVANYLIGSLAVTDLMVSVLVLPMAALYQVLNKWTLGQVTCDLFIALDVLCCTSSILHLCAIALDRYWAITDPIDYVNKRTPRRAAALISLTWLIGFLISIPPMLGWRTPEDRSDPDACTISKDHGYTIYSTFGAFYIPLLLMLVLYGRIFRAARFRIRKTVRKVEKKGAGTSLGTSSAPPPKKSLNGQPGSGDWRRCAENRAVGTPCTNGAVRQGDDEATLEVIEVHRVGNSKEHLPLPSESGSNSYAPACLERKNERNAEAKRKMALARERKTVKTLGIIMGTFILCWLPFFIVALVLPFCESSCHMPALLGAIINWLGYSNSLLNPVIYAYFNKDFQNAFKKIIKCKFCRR
Experiment: Inhibition of [3H]8-OH-DPAT binding to 5-HT1A receptors in rat hippocampal tissue
Settings: ligand [3H]8-OH-DPAT 2 nM, 25° C., 30 minutes
Experimental: Hippocampal tissue from the brains of male Charles River CD rats weighing between 150-250 g were homogenised in ice-cold 50 mM Tris-HCl buffer (pH 7.7) when measured at 25° C., 1:40 w/v) and centrifuged at 30,000 g at 4° C. for 10 minutes. The pellet was rehomogenised in the same buffer, incubated at 37° C. for 10 minutes and centrifuged at 30,000 g at 4° C. for 10 minutes. The final pellet was resuspended in 50 mM Tris-HCl buffer (pH 7.7) containing 4 mM CaCl2, 0.1% L-ascorbic acid and 10 μM pargyline hydrochloride (equivalent to 6.25 mg wet weight of tissue/ml) and used immediately in the binding assay. Aliquots (400 μl; equivalent to 2.5 mg wet weight of tissue/tube) of this suspension were added to tubes containing the ligand (50 μl; 2 nM) and distilled water (50 μl; total binding) or 5-HT (50 μl; 10 μM; non-specific binding) or test compound (50 μl; at a single concentration of 10^−8 M or at 10 concentrations ranging from 10^−11−10^−3 M). The ligand was [^3H]8-hydroxy-2-(dipropylamino)tetralin ([^3H]8-OH-DPAT) and the mixture was incubated at 25° C. for 30 minutes before the incubation was terminated by rapid filtration.
The filters were washed with ice-cold Tris-HCl buffer and dried. The filters were punched out into vials, scintillation fluid added and radioactivity determined by liquid scintillation counting. The percentage displacement of specific binding of the tritiated ligand was calculated for the single concentration (10^−6 M) of test compound. Displacement curves were then produced for those compounds which displaced ≧50% of specific binding of the tritiated ligand at 10^−6 M using a range of concentrations of the compound. The concentration which gave 50% inhibition of specific binding (IC50) was obtained from the curve. The inhibition coefficient Ki was then calculated using the formula [formula]
in which [ligand] is the concentration of the tritiated ligand used and KD is the equilibrium dissociation constant for the ligand.

Compound | Ki [nM]
COc1ccccc1N1CCC(CNC[C@H]2COc3ccc4sccc4c3O2)CC1.O=C(O)/C=C/C(=O)O [Example 2, (S)-N-(2,3-dihydrothieno[3,2-f]-1,4-benzodioxin-2-ylmethyl)-1-[1-(2-methoxyphenyl)piperid-4-yl]methylamine monofumarate] | 9.7
COc1ccccc1N1CCC(CNC[C@H]2COc3ccc4scc(Cl)c4c3O2)CC1 [Example 1, (S)-N-(9-chloro-2,3-dihydrothieno[3,2-f]-1,4-benzodioxin-2-ylmethyl)-1-[1-(2-methoxyphenyl)piperid-4-yl]methylamine 0.5 fumarate] | 36

Continued, values first:

Ki [nM] | Compound
1.2 | COc1ccccc1N1CCC(CNC[C@H]2COc3ccc4[nH]ncc4c3O2)CC1 [Example 5, (S)-N-(2,3-dihydro-7H-1,4-dioxino[2,3-e]indazol-2-ylmethyl)-1-[1-(2-methoxyphenyl)piperid-4-yl]methylamine]
1.7 | COc1ccccc1N1CCC(CNC[C@H]2COc3ccc4occc4c3O2)CC1 [Example 6, (S)-N-(2,3-dihydrofuro[3,2-f]-1,4-benzodioxin-2-ylmethyl)-1-[1-(2-methoxyphenyl)piperid-4-yl]methylamine monofumarate monohydrate]
3.6 | Oc1ccccc1N1CCC(CNC[C@H]2COc3ccc4occc4c3O2)CC1 [Example 7, (S)-2-{4-[(2,3-Dihydrofuro[3,2-f]-1,4-benzodioxin-2-ylmethyl)-aminomethyl]piperidino}phenol monofumarate 1.1 hydrate, 0.25 ethanol solvate]
1.1 | COc1ccccc1N1CCC(CNC[C@H]2COc3ccc4c(c3O2)OCO4)CC1 [Example 8, (S)-N-(7,8-methylenedioxy-2,3-dihydro-1,4-benzodioxin-2-ylmethyl)-1-[1-(2-methoxyphenyl)piperid-4-yl]methyl-amine monocitrate]

Same assay, conditions: single concentration 10^−6 M of test compound, ligand [3H]8-OH-DPAT

Compound | % displacement at 10^−6 M, 5-HT1A [%]
COc1ccccc1N1CCC(CNC[C@H]2COc3ccc4[nH]ccc4c3O2)CC1 [Example 4, (S)-N-(2,3-dihydro-7H-1,4-dioxino[2,3-e]indol-2-ylmethyl)-1-[1-(2-methoxyphenyl)piperid-4-yl]methylamine 0.1 hydrate] | 99
CCOC(=O)c1cc2c3c(ccc2[nH]1)OC[C@H](CNCC1CCN(c2ccccc2OC)CC1)O3 [Example 3, ethyl (S)-2,3-dihydro-2-(N-{[1-(2-methoxyphenyl)piperid-4-yl]methyl}aminomethyl)-7H-1,4-dioxino[2,3-e]indole-8-carboxylate 0.05 dichloromethane solvate] | 99

Target: D2-like dopamine receptors (Rattus norvegicus, UniProt P61169)
Sequence (P61169 whole entry): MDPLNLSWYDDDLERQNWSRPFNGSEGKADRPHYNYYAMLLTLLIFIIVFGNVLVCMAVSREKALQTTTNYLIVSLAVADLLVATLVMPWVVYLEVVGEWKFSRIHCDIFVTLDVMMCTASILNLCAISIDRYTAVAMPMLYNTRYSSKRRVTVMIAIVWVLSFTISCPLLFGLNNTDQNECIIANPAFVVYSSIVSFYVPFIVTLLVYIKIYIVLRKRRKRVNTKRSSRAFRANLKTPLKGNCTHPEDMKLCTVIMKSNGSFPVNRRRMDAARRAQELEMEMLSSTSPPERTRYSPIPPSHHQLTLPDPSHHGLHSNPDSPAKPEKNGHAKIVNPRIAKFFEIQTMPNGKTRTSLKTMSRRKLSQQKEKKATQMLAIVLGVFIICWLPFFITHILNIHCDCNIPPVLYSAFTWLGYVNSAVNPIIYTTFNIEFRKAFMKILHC
Experiment: Inhibition of tritiated (S)-sulpiride binding to D2-like dopamine receptors in rat striatal tissue
Settings: ligand tritiated (S)-sulpiride 1 nM, 4° C., 40 minutes
Experimental: Striatal tissue from the brains of male Charles River CD rats weighing between 140-250 g were homogenised in ice-cold 50 mM Tris-HCl buffer (pH 7.7 when measured at 25° C.) and centrifuged at 40,000 g for 10 minutes. The pellet was resuspended in Tris salts buffer (50 mM Tris-HCl buffer containing 120 mM NaCl, 5 mM KCl, 2 mM CaCl2 and 1 mM MgCl2 with the addition of 6 mM ascorbic acid; pH 7.7 when measured at 25° C.), and again centrifuged at 40,000 g for 10 minutes. The final pellet was stored at −80° C. Before each test the pellet was resuspended in Tris salts buffer (equivalent to 2 mg wet weight of tissue/ml). […]
The filters were washed with ice-cold Tris-HCl buffer and dried. The filters were punched out in to vials, scintillation fluid added and were left for about 20 hours before being counted by scintillation spectrophotometry. The percentage displacement of specific binding of the tritiated ligand was calculated for the single concentration (10^−6M) of test compound. […] The inhibition coefficient Ki then calculated using the formula [formula] […]

Compound | Ki [nM]
CCOC(=O)c1cc2c3c(ccc2[nH]1)OC[C@H](CNCC1CCN(c2ccccc2OC)CC1)O3 [Example 3, ethyl (S)-2,3-dihydro-2-(N-{[1-(2-methoxyphenyl)piperid-4-yl]methyl}aminomethyl)-7H-1,4-dioxino[2,3-e]indole-8-carboxylate 0.05 dichloromethane solvate] | 106

System: not given
Experiment: not given
Settings: not given

Compound | melting point [°C]
COc1ccccc1N1CCC(CNC[C@H]2COc3ccc4scc(Cl)c4c3O2)CC1 (as salt: fumarate) [Example 1, (S)-N-(9-chloro-2,3-dihydrothieno[3,2-f]-1,4-benzodioxin-2-ylmethyl)-1-[1-(2-methoxyphenyl)piperid-4-yl]methylamine 0.5 fumarate] | 171 to 172
COc1ccccc1N1CCC(CNC[C@H]2COc3ccc4sccc4c3O2)CC1.O=C(O)/C=C/C(=O)O [Example 2, (S)-N-(2,3-dihydrothieno[3,2-f]-1,4-benzodioxin-2-ylmethyl)-1-[1-(2-methoxyphenyl)piperid-4-yl]methylamine monofumarate] | 180 to 182
COc1ccccc1N1CCC(CNC[C@H]2COc3ccc4[nH]ccc4c3O2)CC1 (hydrate or solvate) [Example 4, (S)-N-(2,3-dihydro-7H-1,4-dioxino[2,3-e]indol-2-ylmethyl)-1-[1-(2-methoxyphenyl)piperid-4-yl]methylamine 0.1 hydrate] | 162 to 163

More lines, now with the values ahead:

melting point [°C] | Compound
95 to 96 | COc1ccccc1N1CCC(CNC[C@H]2COc3ccc4occc4c3O2)CC1.O.O=C(O)/C=C/C(=O)O (hydrate or solvate) [Example 6, (S)-N-(2,3-dihydrofuro[3,2-f]-1,4-benzodioxin-2-ylmethyl)-1-[1-(2-methoxyphenyl)piperid-4-yl]methylamine monofumarate monohydrate]
88 to 89 | Oc1ccccc1N1CCC(CNC[C@H]2COc3ccc4occc4c3O2)CC1 (as salt: fumarate) (hydrate or solvate) [Example 7, (S)-2-{4-[(2,3-Dihydrofuro[3,2-f]-1,4-benzodioxin-2-ylmethyl)-aminomethyl]piperidino}phenol monofumarate 1.1 hydrate, 0.25 ethanol solvate]
